Measurements: patent US10508109B2 (priority 2015, dated 2019)
Read-outs that look alike come from different tables or passages of the source.

How the values were obtained:
A549 = experiment: Cell-based assay, anti-proliferative activity (Cell Counting Kit-8, 72 hours); details: Homo sapiens, read-out: IC50 (μM) A549
Summary of the method: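 After compound exposure of cells in 96-well plates, growth was measured colorimetrically and converted into IC50 values.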

HFL1 = experiment: as above; details: Homo sapiens, read-out: IC50 (μM) HFL1
Summary of the method: (§1)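 Anti-proliferative IC50 obtained from 96-well cultures treated 72 h with inhibitor at 0–100 micro-M, growth assessed by a CCK-8 colorimetric readout.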

HCT-116 = experiment: as above; details: Homo sapiens, read-out: IC50 (μM) HCT-116
Summary of the method: as §1

CCD-18Co = experiment: as above; details: Homo sapiens, read-out: IC50 (μM) CCD-18Co
Summary of the method: as §1

PC14 = experiment: as above; details: Homo sapiens, read-out: IC50 (μM) PC14
Summary of the method: as §1

SUV39H2 = SUV39H2 (Homo sapiens (Human), UniProt Q9H5I1); details: read-out: IC50 (μM) Suv 39H2 assay; enzyme assay
Sequence of SUV39H2 (Q9H5I1 whole entry): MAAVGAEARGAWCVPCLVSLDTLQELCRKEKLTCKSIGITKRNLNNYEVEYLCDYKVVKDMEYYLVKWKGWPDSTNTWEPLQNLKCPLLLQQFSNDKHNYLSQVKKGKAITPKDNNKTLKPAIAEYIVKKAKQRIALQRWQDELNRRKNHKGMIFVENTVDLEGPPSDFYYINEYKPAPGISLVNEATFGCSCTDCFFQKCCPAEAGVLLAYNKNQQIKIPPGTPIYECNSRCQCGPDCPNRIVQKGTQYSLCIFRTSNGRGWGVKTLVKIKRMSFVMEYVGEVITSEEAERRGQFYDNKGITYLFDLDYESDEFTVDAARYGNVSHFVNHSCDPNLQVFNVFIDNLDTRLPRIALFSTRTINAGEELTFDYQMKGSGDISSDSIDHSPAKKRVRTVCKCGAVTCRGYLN

[1] = A549 cells, 72 hours, Cell Counting Kit-8
[2] = HFL1 cells, 72 hours, Cell Counting Kit-8
[3] = HCT-116 cells, 72 hours, Cell Counting Kit-8
[4] = CCD-18Co cells, 72 hours, Cell Counting Kit-8
[5] = PC-14, PC14 cells, 72 hours, Cell Counting Kit-8

SMILES | IC50 (A549; [1]) [µM] | IC50 (HFL1; [2]) [µM] | IC50 (HCT-116; [3]) [µM] | IC50 (CCD-18Co; [4]) [µM] | IC50 (PC14; [5]) [µM] | IC50 (SUV39H2) [µM] | IC50 (A549; A549, 72 h) [µM] | IC50 (HFL1; HFL1, 72 h) [µM] | IC50 (HCT-116; HCT-116, 72 h) [µM] | IC50 (CCD-18Co; CCD-18Co, 72 h) [µM] | IC50 (PC14; PC-14, 72 h) [µM]
COc1cc(OC)c(-c2cn3ccc(-c4ccc(C(=O)N5CCC(N)CC5)cc4)cc3n2)cc1Cl [Example 259, (4-aminopiperidin-1-yl)(4-(2-(5-chloro-2,4-dimethoxyphenyl)imidazo[1,2-a]pyridin-7-yl)phenyl)methanone] | 10 | 8.6 | 7.3 | 10 | 7.9 | 0.0586 |  |  |  |  | 
CCc1cc(OC)c(Cl)cc1-c1cn2ccc(N3CCNCC3)cc2n1 [Example 260, 2-(5-chloro-2-ethyl-4-methoxyphenyl)-7-(piperazin-1-yl)imidazo-[1,2-a]pyridine] | 6.1 | 3.6 | 3.4 | 3.5 | 3.4 | 0.0344 |  |  |  |  | 
CCc1cc(OC)c(Cl)cc1-c1cn2ccc(N3CCN(S(=O)(=O)C4CC4)CC3)cc2n1 [Example 261, 2-(5-chloro-2-ethyl-4-methoxyphenyl)-7-(4-(cyclopropylsulfonyl)piperazin-1-yl)imidazo[1,2-a]pyridine] | 0.12 | 0.18 | 0.18 | 0.36 | 0.059 | 0.0966 |  |  |  |  | 
COc1cc(C)c(-c2cn3ccc(N4CCN(S(=O)(=O)C5CC5)C(CO)C4)cc3n2)cc1Cl (stereo not drawn) [Example 262, (4-(2-(5-chloro-4-methoxy-2-methylphenyl)imidazo[1,2-a]pyridin-7-yl)-1-(cyclopropylsulfonyl)piperazin-2-yl)methanol] | 2.4 | 3.2 | 3.2 | 5.5 | 1.1 | 0.0453 |  |  |  |  | 
COc1cc(OC)c(-c2cn3ccc(NC(=O)[C@@H]4CCCN4C)cc3n2)cc1Cl [Example 263, (S)—N-(2-(5-chloro-2,4-dimethoxyphenyl)imidazo[1,2-a]pyridin-7-yl)-1-methylpyrrolidine-2-carboxamide] | 1.8 | 1.8 | 0.99 | 1.4 | 1.7 | 0.065 |  |  |  |  | 
COc1cc(C)c(-c2cn3ccc(N4CCN(S(=O)(=O)C5CC5)C(COCCN(C)C)C4)cc3n2)cc1Cl (stereo not drawn) [Example 264, 2-((4-(2-(5-chloro-4-methoxy-2-methylphenyl)imidazo[1,2-a]pyridin-7-yl)-1-(cyclopropylsulfonyl)piperazin-2-yl)methoxy)-N,N-dimethylethanamine] | 5.6 | 4.7 | 8.5 | 5 | 4.5 | 0.07 |  |  |  |  | 
COc1cc(OC)c(-c2cn3ccc(-c4ccc(C(=O)NCCCN)cc4)cc3n2)cc1Cl [Example 265, N-(3-aminopropyl)-4-(2-(5-chloro-2,4-dimethoxyphenyl)imidazo-[1,2-a]pyridin-7-yl)benzamide] | 5.5 | 4.7 | 5.2 | 7.3 | 4.2 | 0.036 |  |  |  |  | 
CC[C@H](C)[C@H](NC)C(=O)Nc1ccn2cc(-c3cc(Cl)c(OC)cc3OC)nc2c1 [Example 266, (2S,3S)—N-(2-(5-chloro-2,4-dimethoxyphenyl)imidazo[1,2-a]pyridin-7-yl)-3-methyl-2-(methylamino)pentanamide] | 1.5 | 1.2 | 2.8 | 1.3 | 1.5 | 0.0454 |  |  |  |  | 
COc1cc(OC)c(-c2cn3ccc(-c4ccc(C(=O)NCC5CCNCC5)cc4)cc3n2)cc1Cl [Example 267, 4-(2-(5-chloro-2,4-dimethoxyphenyl)imidazo[1,2-a]pyridin-7-yl)-N-(piperidin-4-ylmethyl)benzamide] | 10 | 10 | 10 | 10 | 10 | 0.0458 |  |  |  |  | 
COc1cc(OC)c(-c2cn3ccc(-c4ccc(C(=O)NC5CCNCC5)cc4)cc3n2)cc1Cl [Example 268, 4-(2-(5-chloro-2,4-dimethoxyphenyl)imidazo[1,2-a]pyridin-7-yl)-N-(piperidin-4-yl)benzamide] | 4.3 | 3.8 | 2.8 | 4.3 | 3 | 0.0383 |  |  |  |  | 
COc1cc(OC)c(-c2cn3ccc(-c4ccc(C(=O)NCCNCCNC(=O)OC(C)(C)C)cc4)cc3n2)cc1Cl [Example 269, tert-butyl (2-((2-(4-(2-(5-chloro-2,4-dimethoxyphenyl)imidazo[1,2-a]pyridin-7-yl)benzamido)ethyl)amino)ethyl)carbamate] | 1.2 | 1.3 | 0.75 | 0.87 | 0.94 | 0.0408 |  |  |  |  | 
COc1cc(OC)c(-c2cn3ccc(-c4ccc(NCc5ncc[nH]5)cc4)cc3n2)cc1Cl [Example 270, N-((1H-imidazol-2-yl)methyl)-4-(2-(5-chloro-2,4-dimethoxyphenyl)-imidazo[1,2-a]pyridin-7-yl)aniline] | 0.99 | 0.89 | 1 | 1.7 | 0.45 | 0.0199 |  |  |  |  | 
COc1cc(OC)c(-c2nc3cc(N4CCN(C(=O)OC(C)(C)C)CC4)ccn3c2Br)cc1Cl [Example 271, tert-butyl 4-(3-bromo-2-(5-chloro-2,4-dimethoxy-phenyl)imidazo[1,2-a]pyridin-7-yl)piperazine-1-carboxylate] | 1.3 | 1.2 | 1.5 | 1.4 | 0.57 | 0.0267 |  |  |  |  | 
COc1cc(OC)c(-c2cn3ccc(NC(=O)[C@H](C(C)C)N(C)C)cc3n2)cc1Cl [Example 272, (S)—N-(2-(5-chloro-2,4-dimethoxyphenyl)imidazo[1,2-a]pyridin-7-yl)-2-(dimethylamino)-3-methylbutanamide] |  |  |  |  |  | 0.0961 | 0.86 | 0.45 | 2.9 | 0.47 | 0.98
COc1cc(OC)c(-c2cn3ccc(N4CCN(C(=O)OC(C)(C)C)C(C)C4)cc3n2)cc1Cl (stereo not drawn) [Example 275, tert-butyl 4-(2-(5-chloro-2,4-dimethoxyphenyl)imidazo[1,2-a]pyridin-7-yl)-2-methylpiperazine-1-carboxylate] | 1.3 | 1.1 | 1.4 | 1.4 | 0.87 | 0.00333 |  |  |  |  | 
COc1cc(OC)c(-c2cn3ccc(N4CCN(c5ccccn5)CC4)cc3n2)cc1Cl [Example 276, 2-(5-chloro-2,4-dimethoxyphenyl)-7-(4-(pyridin-2-yl)piperazin-1-yl)-imidazo[1,2-a]pyridine] | 1.2 | 0.69 | 0.71 | 1.1 | 1.2 | 0.00774 |  |  |  |  | 
COC(=O)N[C@H]1CC[C@H](Nc2ccn3cc(-c4cc(Cl)c(OC)cc4OC)nc3c2)CC1 [Example 277, (methyl-4-((2-(5-chloro-2,4-dimethoxyphenyl)imidazo[1,2-a]pyridin-7-yl)amino)-trans-cyclohexyl)carbamate] | 0.98 | 0.7 | 0.8 | 0.78 | 0.93 | 0.00524 |  |  |  |  | 
COc1cc(OC)c(-c2cn3ccc(N[C@H]4CC[C@H](CN5CCN(Cc6ccccc6)CC5)CC4)cc3n2)cc1Cl [Example 278, trans-N-(4-((4-benzylpiperazin-1-yl)methyl)cyclohexyl)-2-(5-chloro-2,4-dimethoxyphenyl)imidazo[1,2-a]pyridin-7-amine 2,2,2-trifluoroacetate] | 1.4 |  |  |  |  | 0.0707 |  | 0.73 | 0.84 | 1.2 | 1.3
COc1cc(OC)c(-c2cn3ccc(N4CCN(c5ccnc(N)n5)CC4)cc3n2)cc1Cl [Example 279, 4-(4-(2-(5-chloro-2,4-dimethoxyphenyl)imidazo[1,2-a]pyridin-7-yl)-piperazin-1-yl)pyrimidin-2-amine] | 0.32 | 0.33 | 0.32 | 0.33 | 0.38 | 0.00938 |  |  |  |  | 
COc1cc(OC)c(-c2cn3ccc(OC4CCN(S(=O)(=O)c5cccs5)CC4)cc3n2)cc1Cl [Example 280, 2-(5-chloro-2,4-dimethoxyphenyl)-7-((1-(thiophen-2-ylsulfonyl)piperidin-4-yl)oxy)imidazo[1,2-a]pyridine] | 2 | 1.6 | 1.9 | 1.7 | 0.8 | 0.0711 |  |  |  |  | 
COc1cc(OC)c(-c2cn3ccc(N4CCN(c5cccc(F)n5)CC4)cc3n2)cc1Cl [Example 281, 2-(5-chloro-2,4-dimethoxyphenyl)-7-(4-(6-fluoropyridin-2-yl)piperazin-1-yl)imidazo[1,2-a]pyridine] | 1.2 | 0.76 | 0.82 | 0.83 | 0.9 | 0.0988 |  |  |  |  | 
